According to patent US20160089464A1, “MALODOR REDUCTION COMPOSITIONS” (The Procter & Gamble Company, priority 2014, published 2016):

assay: Comment Code material properties: vapor pressure, ClogP, probability of ingredient color instability, odor detection threshold, melamine formaldehyde PMC headspace response ratio and leakage, liquid dish neat product liquid-air partition coefficient; format: physicochemical; details: Table 1 materials; each letter of the code is one property class (vapor pressure, ClogP, color instability, odor detection threshold, PMC headspace ratio, PMC leakage, liquid dish liquid-air partition coefficient)

Q: Which “Comment Code” value does the source give for CC1CCC(C(C)(C)S)C(=O)C1 (stereo not shown) [Material 1059] here?
A: BDEFHIJKL

Q: Which “Comment Code” value does the source give for CC1=CCC2(C)CCCC(C)(C)C23CC13 (stereo not shown) [Material 1060] here?
A: BDEFGJKL

Q: With COc1cc(C)ccc1C(C)C [Material 1062] as the compound, how does the “Comment Code” value read?
A: ADHIJKL

Q: With CCCC(O)CCC1C(C)CCCC1(C)C (stereo not shown) [Material 1063] as the compound, how does the “Comment Code” value read?
A: DEFHJK

Q: Which “Comment Code” value does the source give for CCCC/C=C/C=C/C=O [Material 1064] here?
A: ACHKL

Q: Which “Comment Code” value does the source give for CC(C)=CCC/C(C)=C/CC/C(C)=C/CO [Material 1065] here?
A: DEFHJK

Q: Which “Comment Code” value does the source give for CC/C=C\CC/C=C/C=O [Material 1066] here?
A: ACHKL

Q: With CCCCCCC/C=C/C=O [Material 1067] as the compound, how does the “Comment Code” value read?
A: ADHKL

Q: For CCCCCC/C=C/C=O [Material 1070], which “Comment Code” value is on record?
A: ADHKL

Q: With CC/C=C\C/C=C/CCO [Material 1072] as the compound, how does the “Comment Code” value read?
A: ACEFHK

Q: With CCCCC/C=C/CCC=O [Material 1073] as the compound, how does the “Comment Code” value read?
A: ADHKL

Q: For C=C/C(C)=C/CC=C(C)C [Material 1077], which “Comment Code” value is on record?
A: ADGIKL

Q: For CC(C)=CCC/C(C)=C/CO [Material 1082], which “Comment Code” value is on record?
A: BCHIK

Q: With CCCCCC1C(=O)CCC1CC(=O)OC (stereo not shown) [Material 1083] as the compound, how does the “Comment Code” value read?
A: DFHJK

Q: Which “Comment Code” value does the source give for CC(C)(C)c1ccc2c(c1)OCC(=O)CO2 [Material 1085] here?
A: CEFHJ

Q: Which “Comment Code” value does the source give for CCCCCCCCCCCCCO [Material 1090] here?
A: DEFGJK

Q: For CCOC(=O)CC(O)(CC(=O)OCC)C(=O)OCC [Material 1091], which “Comment Code” value is on record?
A: CEFGJ

Q: For COC(=O)c1ccccc1NC(O)CC(C)c1ccccc1 (stereo not shown) [Material 1093], which “Comment Code” value is on record?
A: DFHJ

Q: With CC(=O)C1CC/C(C)=C\CC/C(C)=C\C/C=C/1C (stereo not shown) [Material 1095] as the compound, how does the “Comment Code” value read?
A: DHJK

Q: For CC1CC2CCC3C(C2O1)C(C)(C)C(C)C3(C)C (stereo not shown) [Material 1097], which “Comment Code” value is on record?
A: BDEFHJK

Q: With CC1CC=CCCCCCCCC(=O)OCC1 (stereo not shown) [Material 1099] as the compound, how does the “Comment Code” value read?
A: DEFHJK

Q: Which “Comment Code” value does the source give for CCCCCCCCCCC=O [Material 1102] here?
A: BDHJK

Q: With CCC=C(C)C(O)CCCCC (stereo not shown) [Material 1104] as the compound, how does the “Comment Code” value read?
A: BDEFHIJK

Q: With C=C(C)[C@@H]1CCC2=CCC[C@@H](C)[C@]2(C)C1 [Material 1105] as the compound, how does the “Comment Code” value read?
A: BDEFHJK

Q: With C[C@@H]1CCC=C2CC[C@@H](C(C)(C)O)C[C@]21C [Material 1107] as the compound, how does the “Comment Code” value read?
A: DEFHJK

Q: Which “Comment Code” value does the source give for COc1cc(C=O)ccc1OC(=O)C(C)C [Material 1111] here?
A: CHJ

same assay, conditions: cell strings several class symbols together; each letter is one property class of L1

Q: Which “Comment Code” value does the source give for CCOC(=O)[C@@H]1[C@@H](C)CCCC1(C)C [Material 1058] here?
A: ADEFHIJKL

Q: For CC1=CCC2(C)CCCC(C)(C)C23CC13 (stereo not shown) [Material 1060], which “Comment Code” value is on record?
A: BDEFGJKL

Q: For CCC/C=C/CO [Material 1069], which “Comment Code” value is on record?
A: ACEFHIKL

Q: Which “Comment Code” value does the source give for CC(C)(C)[C@@H]1CCCC[C@H]1O [Material 1071] here?
A: ACGIJKL

Q: For CC=CC(=O)C1C(C)=CCCC1(C)C (stereo not shown) [Material 1074], which “Comment Code” value is on record?
A: BDHIJK

Q: Which “Comment Code” value does the source give for C=C(C)[C@@H]1CC[C@@H](C)C(=O)C1 [Material 1081] here?
A: ACGIJKL

Q: Which “Comment Code” value does the source give for C/C=C/c1ccc(O)c(OC)c1 [Material 1084] here?
A: CEFHIK

Q: With CC(=O)OC(c1ccccc1)C(Cl)(Cl)Cl (stereo not shown) [Material 1088] as the compound, how does the “Comment Code” value read?
A: BDEFGJ

Q: For CC1CC2CCC3C(C2O1)C(C)(C)C(C)C3(C)C (stereo not shown) [Material 1097], which “Comment Code” value is on record?
A: DEFHJK

Q: For CCCC(C)(S)CO (stereo not shown) [Material 1098], which “Comment Code” value is on record?
A: ACEFHIJKL

Q: With C[C@@H]1CCC=C2CC[C@@H](C(C)(C)O)C[C@]21C [Material 1107] as the compound, how does the “Comment Code” value read?
A: DEFHJK

Q: With CC=Cc1ccc(OCC)c(O)c1 [Material 1112] as the compound, how does the “Comment Code” value read?
A: CEFHK

Q: With CCCCCC1(C)CCC(C)(C)C1=O (stereo not shown) [Material 1115] as the compound, how does the “Comment Code” value read?
A: BDFGIJKL

Q: With COc1ccc(C=O)cc1OC [Material 1118] as the compound, how does the “Comment Code” value read?
A: BCGIK

Q: With CC1=CC(=O)[C@@H]2C[C@H]1C2(C)C [Material 1119] as the compound, how does the “Comment Code” value read?
A: ACEFGIJKL

Q: Which “Comment Code” value does the source give for CC(C)(C)C1CCCCC1O (stereo not shown) [Material 1122] here?
A: ACGIJKL

Q: For CC(=O)C1=C(C)[C@@H]2C[C@@]3(C1)[C@H](C)CC[C@H]3C2(C)C [Material 1129], which “Comment Code” value is on record?
A: DHJK

Q: Which “Comment Code” value does the source give for COC(=O)c1ccccc1/N=C\C1CCC(C)=CC1C (stereo not shown) [Material 1131] here?
A: DEFHJ

Q: Which “Comment Code” value does the source give for CC(=O)OC(C)CC(C)(C)c1ccccc1 (stereo not shown) [Material 1134] here?
A: BDFHJK

Q: Which “Comment Code” value does the source give for C1CC2C3CC(C2C1)C1(CCCO1)C3 (stereo not shown) [Material 1137] here?
A: DEFGJKL

Q: For C[C@@H]1CC[C@H]2[C@@H]1[C@H]1[C@@H](CC[C@]2(C)O)C1(C)C [Material 1140], which “Comment Code” value is on record?
A: DEFHJK

Q: For C=C(C)COCC/C=C\CC [Material 1141], which “Comment Code” value is on record?
A: ADEFHKL

Q: For Cc1cc2c(cc1C#N)C(C)(C)C(C)C(C)C2(C)C (stereo not shown) [Material 1142], which “Comment Code” value is on record?
A: DHJ

Q: For C[C@H]1[C@@H]2C[C@H](C[C@@]13C=CC(=O)CC3)C2(C)C [Material 1143], which “Comment Code” value is on record?
A: DEFHJK

Q: Which “Comment Code” value does the source give for CC1(C)C2CCC3(C2)C1C1(CCC3(C)C)OCCO1 (stereo not shown) [Material 1144] here?
A: DEFHJK

same assay, conditions: letter codes A-L: vapor pressure, ClogP, probability of ingredient color instability, odor detection threshold, PMC headspace response ratio, PMC leakage, liquid dish liquid-air partition coefficient; Table 1 materials with at least one MORV from 1 to 5

Q: Which “Comment Code” value does the source give for COCc1ccc(O)c(OC)c1 [Material 1113] here?
A: CGIK

Q: With CC(C=O)=CCC1C(C)=CCCC1(C)C (stereo not shown) [Material 1116] as the compound, how does the “Comment Code” value read?
A: BDFHJK

Q: Which “Comment Code” value does the source give for COC(=O)c1c(C)cc(O)c(C)c1O [Material 1117] here?
A: CGIJ

Q: Which “Comment Code” value does the source give for COC1C=CC2C3CCC(C3)C12 (stereo not shown) [Material 1120] here?
A: ACEFHJKL

Q: Which “Comment Code” value does the source give for COC(=O)c1ccccc1N=CC(C)Cc1ccc(C(C)(C)C)cc1 (stereo not shown) [Material 1121] here?
A: DFHJ

Q: For CCC=CCCOC(=O)C(C)C [Material 1125], which “Comment Code” value is on record?
A: ADEFHJKL

Q: With CC1CC(C)(c2ccccc2)OC(C)O1 (stereo not shown) [Material 1126] as the compound, how does the “Comment Code” value read?
A: BCFHJK

Q: Which “Comment Code” value does the source give for CC(=O)C1=C(C)[C@@H]2C[C@@]3(C1)[C@H](C)CC[C@H]3C2(C)C [Material 1129] here?
A: DHJK

Q: Which “Comment Code” value does the source give for COC(=O)c1ccccc1/N=C\C1CCC(C)=CC1C (stereo not shown) [Material 1131] here?
A: DEFHJ

Q: Which “Comment Code” value does the source give for C1CC2C3CC(C2C1)C1(CCCO1)C3 (stereo not shown) [Material 1137] here?
A: DEFGJKL

Q: For CC/C=C/CC/C=C\C#N [Material 1138], which “Comment Code” value is on record?
A: ACEFHKL

Q: For COC(=O)OC1CC/C=C\CCC1 (stereo not shown) [Material 1139], which “Comment Code” value is on record?
A: BCHJKL

Q: Which “Comment Code” value does the source give for C[C@@H]1CC[C@H]2[C@@H]1[C@H]1[C@@H](CC[C@]2(C)O)C1(C)C [Material 1140] here?
A: DEFHJK

Q: With Cc1cc2c(cc1C#N)C(C)(C)C(C)C(C)C2(C)C (stereo not shown) [Material 1142] as the compound, how does the “Comment Code” value read?
A: DHJ

Q: Which “Comment Code” value does the source give for C[C@H]1[C@@H]2C[C@H](C[C@@]13C=CC(=O)CC3)C2(C)C [Material 1143] here?
A: DEFHJK

Q: Which “Comment Code” value does the source give for CC1(C)C2CCC3(C2)C1C1(CCC3(C)C)OCCO1 (stereo not shown) [Material 1144] here?
A: DEFHJK

Q: Which “Comment Code” value does the source give for CC1(C)C2CCC3(C2)C1C1(CCC3(C)C)OCCO1 (stereo not shown) [Material 1145] here?
A: DEFHJK

Q: With COc1cc(CCC(C)=O)ccc1O [Material 1146] as the compound, how does the “Comment Code” value read?
A: CEFGJ

Q: Which “Comment Code” value does the source give for CC1=CC2=C(C(C)C)CC[C@@H](C)[C@H]2CC1 [Material 1147] here?
A: DEFHJKL
